Where two headings read alike, the source gives them in different places.
How the values were obtained:
OX1 = target: T1, OX1 (Homo sapiens, UniProt O43613); assay: Orexin receptor cell-based functional assay, [Ca2+]i by FLIPR, CHO-OX1 cells
T1 construct: expressed in transfected cells; host or cells: CHO (CHO-OX1, kept under selection antibiotic)
T1 sequence (O43613 1-425): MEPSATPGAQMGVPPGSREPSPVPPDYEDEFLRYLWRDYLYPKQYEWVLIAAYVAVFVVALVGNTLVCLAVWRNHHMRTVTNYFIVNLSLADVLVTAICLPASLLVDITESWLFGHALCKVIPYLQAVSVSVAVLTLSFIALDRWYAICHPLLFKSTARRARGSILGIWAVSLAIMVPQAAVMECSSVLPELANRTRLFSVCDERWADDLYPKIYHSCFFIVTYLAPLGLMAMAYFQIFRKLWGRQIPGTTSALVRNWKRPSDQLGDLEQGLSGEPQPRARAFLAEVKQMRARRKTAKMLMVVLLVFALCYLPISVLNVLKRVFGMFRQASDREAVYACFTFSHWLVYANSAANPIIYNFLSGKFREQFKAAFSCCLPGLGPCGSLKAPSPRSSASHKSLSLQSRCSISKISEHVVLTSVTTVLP
How it was run: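 CHO cells expressing human OX1 or OX2 loaded with calcium dye plus 2.5 mM probenecid at 37° C (calcium4, 30 min, or calcium6, 2 h), then exposed to compounds (0.1 nM-10 μM) for 30 min. Intracellular Ca2+ measured on FLIPR; antagonist format.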

CYP3A4 = target: T2, CYP3A4 (Homo sapiens, UniProt P08684); assay: Cytochrome P450 inhibition assay (midazolam hydroxylation); assay type: in vitro ADME; details: human, human liver microsomes, probe midazolam (hydroxylation to 1′-hydroxymidazolam), 10 μM test compound, midazolam at approximately its Km
T2 construct: pre-incubated with human liver microsomes and NADPH; from tissue; host or cells: human liver microsomes
T2 sequence (P08684 whole entry): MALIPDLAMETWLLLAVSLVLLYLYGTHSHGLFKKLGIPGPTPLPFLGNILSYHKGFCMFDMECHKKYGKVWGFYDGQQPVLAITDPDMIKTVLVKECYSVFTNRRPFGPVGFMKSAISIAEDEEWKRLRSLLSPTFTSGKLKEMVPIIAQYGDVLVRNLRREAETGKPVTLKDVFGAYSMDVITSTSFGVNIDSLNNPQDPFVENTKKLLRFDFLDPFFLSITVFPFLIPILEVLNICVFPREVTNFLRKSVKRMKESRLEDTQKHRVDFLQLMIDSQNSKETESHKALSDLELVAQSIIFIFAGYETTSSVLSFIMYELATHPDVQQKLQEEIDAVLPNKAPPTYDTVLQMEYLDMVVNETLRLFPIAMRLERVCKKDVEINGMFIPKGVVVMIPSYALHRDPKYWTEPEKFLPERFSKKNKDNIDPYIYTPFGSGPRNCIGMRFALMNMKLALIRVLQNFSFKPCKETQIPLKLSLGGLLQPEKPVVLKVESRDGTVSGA
How it was run: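 Human liver microsomes; CYP3A4 activity as midazolam 1′-hydroxylation with substrate near Km, with or without 10 μM test compound, read as percent inhibition. For time-dependent inhibition, parallel samples were preincubated 30 min with NADPH before substrate, and percent inhibition compared with non-preincubated samples.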

[1] = CHO-OX1 cells, [Ca2+]i by FLIPR, antagonist dose-range 0.1 nM-10 μM, EC90 of OXA, read-out: OX1

| IC50 (OX1; [1]) | inhibition at 10 µM (CYP3A4) | IC50 (OX1; Table 6, racemate vs enantiomers, read-out: OX1 IC50) | Compound |
| --- | --- | --- | --- |
| 0.009 µM | 89% |  | Cc1ccc(-c2ccccn2)c(C(=O)N2CCC[C@@H](C)[C@H]2CNc2ccc(C(F)(F)F)cn2)c1 [Example A9, ((2S,3R)-3-Methyl-2-(((5-(trifluoromethyl)pyridin-2-yl)amino)methyl)piperidin-1-yl)(5-methyl-2-(pyridin-2-yl)phenyl)methanone] |
| 0.081 µM | 98% |  | Cc1ccc(-c2cnn(C)c2)c(C(=O)N2CCC[C@@H](C)[C@H]2CNc2nc3ccc(Cl)cc3o2)c1 [Example A10, ((2S,3R)-2-(((6-Chlorobenzo[d]oxazol-2-yl)amino)methyl)-3-methylpiperidin-1-yl)(5-methyl-2-(1-methyl-1H-pyrazol-4-yl)phenyl)methanone] |
| 0.003 µM | 78% |  | Cc1ccc(-n2nccn2)c(C(=O)N2CCC[C@@H](C)[C@H]2CNc2nc3cc(Cl)ccc3o2)c1 [Example A11, ((2S,3R)-2-(((5-Chlorobenzo[d]oxazol-2-yl)amino)methyl)-3-methylpiperidin-1-yl)(5-methyl-2-(2H-1,2,3-triazol-2-yl)phenyl)methanone] |
| 0.02 µM | 98% |  | Cc1ccc(-c2cnn(C)c2)c(C(=O)N2CCC[C@@H](C)[C@H]2CNc2nc3cc(Cl)ccc3o2)c1 [Example A12, ((2S,3R)-2-(((5-chlorobenzo[d]oxazol-2-yl)amino)methyl)-3-methylpiperidin-1-yl)(5-methyl-2-(1-methyl-1H-pyrazol-4-yl)phenyl)methanone] |
| 0.01 µM | 80% |  | Cc1ccc(-n2nccn2)c(C(=O)N2CCC[C@@H](C)[C@H]2CNc2nc3ccc(Cl)cc3o2)c1 [Example A14, ((2S,3R)-2-(((6-Chlorobenzo[d]oxazol-2-yl)amino)methyl)-3-methylpiperidin-1-yl)(5-methyl-2-(2H-1,2,3-triazol-2-yl)phenyl)methanone] |
| 0.26 µM | 96% |  | Cc1ccc(-n2ncnc2C)c(C(=O)N2CCC[C@@H](C)[C@H]2CNc2ccc(C(F)(F)F)cn2)c1 [Example A16, ((2S,3R)-3-Methyl-2-(((5-(trifluoromethyl)pyridin-2-yl)amino)methyl)piperidin-1-yl)(5-methyl-2-(5-methyl-1H-1,2,4-triazol-1-yl)phenyl)methanone] |
| 0.02 µM | 95% |  | Cc1ccc(-n2cnc(C)n2)c(C(=O)N2CCC[C@@H](C)[C@H]2CNc2ccc(C(F)(F)F)cn2)c1 [Example A17, ((2S,3R)-3-Methyl-2-(((5-(trifluoromethyl)pyridin-2-yl)amino)methyl)piperidin-1-yl)(5-methyl-2-(3-methyl-1H-1,2,4-triazol-1-yl)phenyl)methanone] |
| 0.007 µM | 95% |  | Cc1ccc(-c2ccn(C)n2)c(C(=O)N2CCC[C@@H](C)[C@H]2CNc2ccc(C(F)(F)F)cn2)c1 [Example A18, ((2S,3R)-3-Methyl-2-(((5-(trifluoromethyl)pyridin-2-yl)amino)methyl)piperidin-1-yl)(5-methyl-2-(1-methyl-1H-pyrazol-3-yl)phenyl)methanone] |
| 0.004 µM | 96% |  | Cc1ccc(-c2cnccn2)c(C(=O)N2CCC[C@@H](C)[C@H]2CNc2ccc(C(F)(F)F)cn2)c1 [Example A19, ((2S,3R)-3-Methyl-2-(((5-(trifluoromethyl)pyridin-2-yl)amino)methyl)piperidin-1-yl)(5-methyl-2-(pyrazin-2-yl)phenyl)methanone] |
| 0.037 µM | 83% |  | Cc1ccc(-c2nccn2C)c(C(=O)N2CCC[C@@H](C)[C@H]2CNc2ccc(C(F)(F)F)cn2)c1 [Example A20, ((2S,3R)-3-Methyl-2-(((5-(trifluoromethyl)pyridin-2-yl)amino)methyl)piperidin-1-yl)(5-methyl-2-(1-methyl-1H-imidazol-2-yl)phenyl)methanone] |
| 0.013 µM | 89% |  | COc1ccnc(-c2ccc(C)cc2C(=O)N2CCC[C@@H](C)[C@H]2CNc2ccc(C(F)(F)F)cn2)n1 [Example A21, (2-(4-Methoxypyrimidin-2-yl)-5-methylphenyl)((2S,3R)-3-methyl-2-(((5-(trifluoromethyl)pyridin-2-yl)amino)methyl)piperidin-1-yl)methanone] |
| > 1 µM | 75% |  | Cc1ccc(-c2nn[nH]n2)c(C(=O)N2CCC[C@@H](C)[C@H]2CNc2ccc(C(F)(F)F)cn2)c1 [Example A23, ((2S,3R)-3-Methyl-2-(((5-(trifluoromethyl)pyridin-2-yl)amino)methyl)piperidin-1-yl)(5-methyl-2-(2H-tetrazol-5-yl)phenyl)methanone] |
| 0.011 µM | 97% |  | Cc1ccc(-c2nccs2)c(C(=O)N2CCC[C@@H](C)[C@H]2CNc2ccc(C(F)(F)F)cn2)c1 [Example A24, ((2S,3R)-3-Methyl-2-(((5-(trifluoromethyl)pyridin-2-yl)amino)methyl)piperidin-1-yl)(5-methyl-2-(thiazol-2-yl)phenyl)methanone] |
| 0.087 µM | 91% |  | Cc1ccc(-n2cnc(C)n2)c(C(=O)N2CCC[C@@H](C)[C@H]2CNc2nc3cc(Cl)ccc3o2)c1 [Example A29, ((2S,3R)-2-(((5-Chlorobenzo[d]oxazol-2-yl)amino)methyl)-3-methylpiperidin-1-yl)(5-methyl-2-(3-methyl-1H-1,2,4-triazol-1-yl)phenyl)methanone] |
| 0.004 µM | 96% |  | Cc1ccc(-c2ccnc(C)c2)c(C(=O)N2CCC[C@@H](C)[C@H]2CNc2nc3cc(Cl)ccc3o2)c1 [Example A37, ((2S,3R)-2-(((5-Chlorobenzo[d]oxazol-2-yl)amino)methyl)-3-methylpiperidin-1-yl)(5-methyl-2-(2-methylpyridin-4-yl)phenyl)methanone] |
| 0.004 µM | 52% |  | Cc1nc(C(=O)N2CCC[C@@H](C)[C@H]2CNc2ncc(Cl)cn2)c(-c2ccc(F)cc2)s1 [Example A41, ((2S,3R)-2-(((5-Chloropyrimidin-2-yl)amino)methyl)-3-methylpiperidin-1-yl)(5-(4-fluorophenyl)-2-methylthiazol-4-yl)methanone] |
| 0.67 µM | 55% | 0.67 µM | Cc1nc(C(=O)N2CCC[C@H](C)[C@@H]2CNc2ccc(C(F)(F)F)cn2)c(-c2ccc(F)cc2)s1 [Example A43, (5-(4-Fluorophenyl)-2-methylthiazol-4-yl)((2R,3S)-3-methyl-2-(((5-(trifluoromethyl)pyridin-2-yl)amino)methyl)piperidin-1-yl)methanone] |
| 0.15 µM | 56% |  | Cc1ccc(-n2nccn2)c(C(=O)N2CCC[C@@H](C)[C@H]2CNc2ccc(F)cn2)c1 [Example A47, ((2S,3R)-2-(((5-Fluoropyridin-2-yl)amino)methyl)-3-methylpiperidin-1-yl)(5-methyl-2-(2H-1,2,3-triazol-2-yl)phenyl)methanone] |
| 0.05 µM | 87% |  | Cc1ccc(NC[C@@H]2[C@H](C)CCCN2C(=O)c2cc(C)ccc2-c2ccccn2)nc1 [Example A59, ((2S,3R)-3-Methyl-2-(((5-methylpyridin-2-yl)amino)methyl)piperidin-1-yl)(5-methyl-2-(pyridin-2-yl)phenyl)methanone] |
| 0.49 µM | 69% |  | Cc1ccc(-c2ccccn2)c(C(=O)N2CCC[C@@H](C)[C@H]2CNc2ccc(C#N)cn2)c1 [Example A60, 6-((((2S,3R)-3-Methyl-1-(5-methyl-2-(pyridin-2-yl)benzoyl)piperidin-2-yl)methyl)amino)nicotinonitrile] |
| 0.007 µM | 84% |  | Cc1ccc(-n2nccn2)c(C(=O)N2CCC[C@@H](C)[C@H]2CNc2ccc(Cl)cn2)c1 [Example A78, ((2S,3R)-2-(((5-Chloropyridin-2-yl)amino)methyl)-3-methylpiperidin-1-yl)(5-methyl-2-(2H-1,2,3-triazol-2-yl)phenyl)methanone] |
| 0.31 µM | 5% |  | Cc1ccc(-n2nccn2)c(C(=O)N2CCC[C@@H](C)[C@H]2CNc2cccc(C)n2)c1 [Example A79, ((2S,3R)-3-Methyl-2-(((6-methylpyridin-2-yl)amino)methyl)piperidin-1-yl)(5-methyl-2-(2H-1,2,3-triazol-2-yl)phenyl)methanone] |
| 1.87 µM | 28% |  | COc1cccc(NC[C@@H]2[C@H](C)CCCN2C(=O)c2cc(C)ccc2-n2nccn2)n1 [Example A80, ((2S,3R)-2-(((6-Methoxypyridin-2-yl)amino)methyl)-3-methylpiperidin-1-yl)(5-methyl-2-(2H-1,2,3-triazol-2-yl)phenyl)methanone] |
